Laboratory results from the supplement of paper PMC9549728.
Where a name gives a salt, the structure may show the parent alone.

Experiments:
Assay in all cases: IC50 (viability, PrestoBlue) (log10 nM)
Settings in all cases: exposure time: 72 h
[1] = test system: murine gastric organoid WNT-activated (Apc fl/fl; Tp53 R172H)
Procedure, shortened: (§1)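 Murine gastric corpus organoids, uninduced or Cre-induced (RAS-activated, WNT-activated, diffuse), were mechanically dissociated and seeded in 15 μl Matrigel under 45 μl medium. Plates were 384-well, pre-spotted with DMSO-diluted compounds at nine final concentrations from 6.7 to 25,004 nM, and incubated 72 h. PrestoBlue (1× final) was added for 3 h at 37°C, with fluorescence read at 560/590 nm. IC50 came from Prism non-linear regression, reported as log10 nM, mean of three passages × two wells.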

[2] = test system: murine gastric organoid RAS-activated (Kras G12D; Tp53 R172H)
Procedure, shortened: as §1

[3] = test system: murine normal gastric organoid
Procedure, shortened: as §1

[4] = test system: murine gastric organoid diffuse (Cdh1 fl/fl; Apc fl/fl)
Procedure, shortened: as §1

| SMILES | IC50 (log10 nM) [1] | IC50 (log10 nM) [2] | IC50 (log10 nM) [3] | IC50 (log10 nM) [4] |
| --- | --- | --- | --- | --- |
| Cn1nccc1Nc1nccc(-c2ccn([C@H](CO)c3ccc(Cl)c(F)c3)c(=O)c2)n1 [Ravoxertinib] | 3.44 | 3.74 | 3.18 | > 4.4 |
| CNC(=O)c1cc(Oc2ccc(NC(=O)Nc3ccc(Cl)c(C(F)(F)F)c3)c(F)c2)ccn1 [Regorafenib] | 3.86 | 4.14 | 3.94 | 3.97 |
| CC1=C(/C=C/C(C)=C/C=C/C(C)=C/C(=O)O)C(C)(C)CCC1 [Retinoic acid] | 3.82 | 0.928 | > 4.4 | > 4.4 |
| COc1cc(OC)c(/C=C/S(=O)(=O)Cc2ccc(OC)c(NCC(=O)O)c2)c(OC)c1 [Rigosertib sodium] | 2.01 | 1.35 | 1.86 | 1.55 |
| C/C=C1\NC(=O)[C@H]2CSSCC/C=C/[C@H](CC(=O)N[C@H](C(C)C)C(=O)N2)OC(=O)[C@H](C(C)C)NC1=O [Romidepsin] | 0.997 | < 0.826 | < 0.826 | 0.852 |
| Cc1nc(C(=O)NCC(=O)O)c(O)c2ccc(Oc3ccccc3)cc12 [Roxadustat (FG-4592)] | 1.23 | < 0.826 | 2.38 | 3.27 |
| O=C(Nc1cccc(Cl)c1)Nc1ncc(CCNc2ncnc3ccsc23)s1 [SNS-314] | 2.87 | 2.47 | 3.2 | 4.02 |
| Cc1cc(C)c(/C=C2\C(=O)Nc3ccccc32)[nH]1 [SU 5416] | 3.77 | 4.36 | 4.03 | 4.33 |
| Cn1cnc2c(F)c(Nc3ccc(Br)cc3Cl)c(C(=O)NOCCO)cc21 [Selumetinib] | 3.32 | 2.61 | 2.47 | 3.15 |
| CC(C)[C@H](O)C(=O)N[C@@H](C)C(=O)N[C@@H]1C(=O)N(C)CCc2ccccc21 [Semagacestat] | 2.37 | > 4.4 | 4.35 | > 4.4 |
| CNC(=O)c1cc(Oc2ccc(NC(=O)Nc3ccc(Cl)c(C(F)(F)F)c3)cc2)ccn1 [Sorafenib] | 3.9 | 3.98 | 3.78 | 3.88 |
| CN(N=O)C(=O)N[C@@H](C=O)[C@@H](O)[C@H](O)[C@H](O)CO [Streptozocin] | 4.07 | > 4.4 | 4.39 | > 4.4 |
| CCN(CC)CCNC(=O)c1c(C)[nH]c(/C=C2\C(=O)Nc3ccc(F)cc32)c1C [Sunitinib] | 3.94 | 3.93 | 3.8 | 3.92 |
| CC(=O)Nc1ccc(C(=O)Nc2ccccc2N)cc1 [Tacedinaline] | 4.35 | 3.87 | 4.34 | 3.97 |
| COc1cc2c(cc1OC)CN(CCc1ccc(NC(=O)c3cc(OC)c(OC)cc3NC(=O)c3cnc4ccccc4c3)cc1)CC2 [Tariquidar] | 3.76 | 3.73 | 4.26 | 3.95 |
| Cn1nnc2c(C(N)=O)ncn2c1=O [Temozolomide] | 4.02 | > 4.4 | 4.37 | > 4.4 |

| SMILES | IC50 (log10 nM) [1] | IC50 (log10 nM) [2] | IC50 (log10 nM) [3] | IC50 (log10 nM) [4] |
| --- | --- | --- | --- | --- |
| COc1cc([C@@H]2c3cc4c(cc3[C@@H](O[C@@H]3O[C@@H]5CO[C@@H](c6cccs6)O[C@H]5[C@H](O)[C@H]3O)[C@H]3COC(=O)[C@H]23)OCO4)cc(OC)c1O [Teniposide] | 2.84 | 1.83 | 1.79 | 2.35 |
| S=P(N1CC1)(N1CC1)N1CC1 [Thio-TEPA] | 4.16 | 4.17 | 4.21 | > 4.4 |
| CSc1ccc2c(c1)N(CCC1CCCCN1C)c1ccccc1S2 (centres undefined) [Thioridazine hydrochloride] | 3.52 | 4 | 3.9 | 4.13 |
| Cn1cncc1[C@@](N)(c1ccc(Cl)cc1)c1ccc2c(c1)c(-c1cccc(Cl)c1)cc(=O)n2C [Tipifarnib] | 3.16 | < 0.826 | 2.96 | 3.73 |
| O=C1NC(=O)[C@@H](c2cn3c4c(cccc24)CCC3)[C@@H]1c1c[nH]c2ccccc12 [Tivantinib] | 2.79 | 2.4 | 2.87 | 3.1 |
| COc1cc2nccc(Oc3ccc(NC(=O)Nc4cc(C)on4)c(Cl)c3)c2cc1OC [Tivozanib] | 3.74 | 3.6 | 2.5 | > 4.4 |
| CC[C@@]1(O)C(=O)OCc2c1cc1n(c2=O)Cc2cc3c(CN(C)C)c(O)ccc3nc2-1 [Topotecan hydrochloride] | 2.36 | 1.68 | 1.48 | 2.4 |
| CC(=O)Nc1cccc(-n2c(=O)n(C3CC3)c(=O)c3c(Nc4ccc(I)cc4F)n(C)c(=O)c(C)c32)c1 [Trametinib] | 1.9 | 1.33 | 1.36 | 1.71 |
| CC(C)Nc1cc(-c2c[nH]c(C(=O)N[C@H](CO)c3cccc(Cl)c3)c2)c(Cl)cn1 [Ulixertinib] | 2.96 | 3.09 | 2.79 | 3.42 |
| Oc1ncc(N(CCCl)CCCl)c(O)n1 [Uramustine] | 3.68 | 3.2 | 3.3 | 3.69 |
| CCCCC(=O)OCC(=O)[C@]1(O)Cc2c(O)c3c(c(O)c2[C@@H](O[C@H]2C[C@H](NC(=O)C(F)(F)F)[C@H](O)[C@H](C)O2)C1)C(=O)c1c(OC)cccc1C3=O [Valrubicin] | 2.65 | 2.49 | 2.43 | 2.58 |
| COc1cc2/c(=N/c3ccc(Br)cc3F)nc[nH]c2cc1OCC1CCN(C)CC1 [Vandetanib] | 2.64 | 2.63 | 3.95 | 2.76 |
| Clc1ccc(Nc2nnc(Cc3ccncc3)c3ccccc23)cc1 [Vatalanib] | 3.61 | 3.75 | 3.55 | 4.26 |
| CC[C@]1(O)C[C@@H]2CN(CCc3c([nH]c4ccccc34)[C@@](C(=O)OC)(c3cc4c(cc3OC)N(C)[C@H]3[C@@](O)(C(=O)OC)[C@H](OC(C)=O)[C@]5(CC)C=CCN6CC[C@]43[C@@H]65)C2)C1 [Vinblastine sulfate] | < 0.826 | < 0.826 | < 0.826 | < 0.826 |
| CC[C@]1(O)C[C@H]2CN(CCc3c([nH]c4ccccc34)[C@@](C(=O)OC)(c3cc4c(cc3OC)N(C=O)[C@H]3[C@@](O)(C(=O)OC)[C@H](OC(C)=O)[C@]5(CC)C=CCN6CC[C@]43[C@@H]65)C2)C1 [Vincristine sulfate] | 2.19 | 2.08 | 1.68 | 1.89 |
